Experimental data: patent US12060588B2, “Methods of editing DNA methylation” (Whitehead Institute for Biomedical Research, priority 2016, dated 2024)

Legend:
Npas4 = Npas4 expression in mouse cortical neurons (RT-qPCR); type: cell-based; conditions: with the 4 BDNF promoter IV gRNAs
Protocol: FIGS. 11A-11L depict targeted demethylation of BDNF promoter IV by dCas9-Tet1 in neurons. […] PAM for each gRNA is highlighted by a red box. […] Note that cultured neurons were treated with AraC on DIV2 to halt cell division in glial cells and neural progenitors. […] FIG. 11C provides EDU labeling analysis for the mouse primary neurons over the course of KCl treatment for 24 hrs. Note that extremely few EDU positive cells were observed. Stained in red for EDU, green for MAP2 and DAPI for nuclei. Scale bar: 500 um. FIG. 11D Upper panel: provides quantification of neuronal density over the course of KCl treatment. The post-mitotic neuron density remains steadily around 4.5×10^4/cm2 over time. Bars represent mean±SD of three experimental replicates. Lower panel: provides quantification of the EDU positive cells over the course of KCl treatment. Less than 2% of the cells are EDU-positive over 24 hrs. Bars represent mean±SD of three experimental replicates. FIG. 11E provides confocal micrographs of BDNF induction by ectopic expression of dCas9-Tet1 and a set of 4 gRNAs targeting BDNF promoter IV. Stained in green for BDNF, magenta for MAP2, red for Cherry and blue for DAPI. […]
Cells were harvested using Trizol followed by Direct-zol (Zymo Research), according to manufacturer's instructions. […] Quantitative PCR reactions were prepared with SYBR Green (Invitrogen), and performed in 7900HT Fast ABI instrument. […]

[1] = system: MyoD distal enhancer (DMR-5); experiment: Bisulfite sequencing of the MyoD DMR-5 region in C3H10T1/2 cells; type: cell-based, mouse; conditions: with target gRNAs, sorted infection-positive cells
From the text: FIGS. 4A-4H depict targeted demethylation of the MyoD distal enhancer by dCas9-Tet1 to facilitate conversion of fibroblasts to myoblasts. FIG. 4A provides a schematic representation of targeting the MyoD distal enhancer (DE) region in DMR-5 by dCas9-Tet1 (dC-T) with specific gRNAs. […] Cherry positive cells were FACS sorted for RT-qPCR analysis. Bars represent mean±SD of three experimental replicates. FIG. 4C bisulfite sequencing of cells in FIG. 4B. […] Shown is the mean percentage±SD of two biological replicates. […] FIG. 4F provides quantification of MyoD positive cell ratio 14-day post infection with lentiviruses expressing dC-T alone, dC-T with gRNAs targeting DMR-5, and dC-dT with the target gRNAs. […] FIG. 4H provides quantification of myotube density in MHC positive clusters with more than 2 or 5 nuclei at 14-days after infection. […] Data are quantified from 3-5 representative images for F-H. Bars represent mean±SD.
Six muscle-specific DMRs have been described within the 50 kb upstream region of MyoD gene (Schultz et al., 2015), and DMR-5 overlaps with a known distal enhancer of MyoD (Brunk et al., 1996) as shown in FIG. 4A. […] The cells were cultured for 14 days and analyzed for MyoD and MHC (Myosin Heavy chain, a myotube specific marker) expression. […]

dCas9-Tet1: catalytically inactive Cas9 (dCas9) fused through NLS to the Tet1 catalytic domain, SEQ ID NO: 159; lentivirally expressed with gRNAs
induction of Npas4 expression (Npas4): did not induce Npas4 expression
methylation in the DMR-5 region [1]: substantial reduction of methylation
